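Briefly, cells in 96-well plates were exposed to five compound concentrations for 48 h, and endpoints were estimated by linear interpolation. TGI is the concentration that stops growth completely.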
Assays:
Test in all cases: inhibition of tumour cell growth, NCI panel, 48 h
CCRF-CEM leukemia = tested on: CCRF-CEM leukemia
SN12C renal = tested on: SN12C renal
NCI-H23 lung = tested on: NCI-H23 lung
PC-3 prostate = tested on: PC-3 prostate
786-0 renal = tested on: 786-0 renal
EKVX NSCLC = tested on: EKVX NSCLC
HOP-92 NSCLC = tested on: HOP-92 NSCLC
MALME-3M melanoma = tested on: MALME-3M melanoma
RXF 393 renal = tested on: RXF 393 renal
SNB-19 CNS = tested on: SNB-19 CNS
NCI-H522 lung = tested on: NCI-H522 lung
SK-MEL-28 melanoma = tested on: SK-MEL-28 melanoma
COLO 205 colon = tested on: COLO 205 colon
HS 578T breast = tested on: HS 578T breast
UO-31 renal = tested on: UO-31 renal
T-47D breast = tested on: T-47D breast
TK-10 renal = tested on: TK-10 renal
HCT-15 colon = tested on: HCT-15 colon
OVCAR-8 ovarian = tested on: OVCAR-8 ovarian
MDA-MB-231 breast = tested on: MDA-MB-231 breast
UACC-62 melanoma = tested on: UACC-62 melanoma
LOX IMVI melanoma = tested on: LOX IMVI melanoma
U251 CNS = tested on: U251 CNS
IGROV1 ovarian = tested on: IGROV1 ovarian
UACC-257 melanoma = tested on: UACC-257 melanoma
OVCAR-3 ovarian = tested on: OVCAR-3 ovarian
SF-268 CNS = tested on: SF-268 CNS
HT29 colon = tested on: HT29 colon
HOP-62 NSCLC = tested on: HOP-62 NSCLC
HL-60(TB) leukemia = tested on: HL-60(TB) leukemia
KM12 colon = tested on: KM12 colon
OVCAR-4 ovarian = tested on: OVCAR-4 ovarian
DU-145 prostate = tested on: DU-145 prostate
A549 NSCLC = tested on: A549 NSCLC
SF-539 CNS = tested on: SF-539 CNS
OVCAR-5 ovarian = tested on: OVCAR-5 ovarian
NCI-H460 lung = tested on: NCI-H460 lung
A498 renal = tested on: A498 renal
SK-OV-3 ovarian = tested on: SK-OV-3 ovarian
SR leukemia = tested on: SR leukemia
NCI/ADR-RES ovarian = tested on: NCI/ADR-RES ovarian
CAKI-1 renal = tested on: CAKI-1 renal
K-562 leukemia = tested on: K-562 leukemia
ACHN renal = tested on: ACHN renal
MOLT-4 leukemia = tested on: MOLT-4 leukemia
HCC-2998 colon = tested on: HCC-2998 colon
MDA-N = tested on: MDA-N
SK-MEL-2 melanoma = tested on: SK-MEL-2 melanoma
SK-MEL-5 melanoma = tested on: SK-MEL-5 melanoma
SF-295 CNS = tested on: SF-295 CNS
SW-620 colon = tested on: SW-620 colon
MCF7 breast = tested on: MCF7 breast
M14 melanoma = tested on: M14 melanoma
HCT-116 colon = tested on: HCT-116 colon
MDA-MB-435 = tested on: MDA-MB-435
BT-549 breast = tested on: BT-549 breast
SNB-75 CNS = tested on: SNB-75 CNS
RPMI-8226 leukemia = tested on: RPMI-8226 leukemia
NCI-H226 lung = tested on: NCI-H226 lung

## CCNCCCNc1c2ccccc2nc2ccccc12
CCRF-CEM leukemia
  TGI: 10.1 µM
SN12C renal
  TGI: 2.2 µM
NCI-H23 lung
  TGI: 2.14 µM
PC-3 prostate
  TGI: 0.816 µM
786-0 renal
  TGI: 5.39 µM
EKVX NSCLC
  TGI: 21.2 µM
HOP-92 NSCLC
  TGI: 3.11 µM
MALME-3M melanoma
  TGI: 2.26 µM
RXF 393 renal
  TGI: 2.83 µM
SNB-19 CNS
  TGI: 2.98 µM
NCI-H522 lung
  TGI: 0.7 µM
SK-MEL-28 melanoma
  TGI: 1.48 µM
COLO 205 colon
  TGI: 0.761 µM
HS 578T breast
  TGI: 3.13 µM
UO-31 renal
  TGI: 2.63 µM
T-47D breast
  TGI: 3.35 µM
TK-10 renal
  TGI: 16 µM
HCT-15 colon
  TGI: 1.54 µM
OVCAR-8 ovarian
  TGI: 3.7 µM
MDA-MB-231 breast
  TGI: 2.5 µM
UACC-62 melanoma
  TGI: 1.62 µM
LOX IMVI melanoma
  TGI: 1.08 µM
U251 CNS
  TGI: > 100 µM
IGROV1 ovarian
  TGI: 4.3 µM
UACC-257 melanoma
  TGI: 1.7 µM
OVCAR-3 ovarian
  TGI: 2 µM
SF-268 CNS
  TGI: 4.47 µM
HT29 colon
  TGI: > 100 µM
HOP-62 NSCLC
  TGI: 2.37 µM
HL-60(TB) leukemia
  TGI: 54.9 µM
KM12 colon
  TGI: 2.04 µM
OVCAR-4 ovarian
  TGI: 3.2 µM
DU-145 prostate
  TGI: 4.01 µM
A549 NSCLC
  TGI: 3.38 µM
SF-539 CNS
  TGI: 1.21 µM
OVCAR-5 ovarian
  TGI: 1.04 µM
NCI-H460 lung
  TGI: 0.585 µM
A498 renal
  TGI: 3.2 µM
SK-OV-3 ovarian
  TGI: 6.55 µM
SR leukemia
  TGI: 1.83 µM
NCI/ADR-RES ovarian
  TGI: 10.2 µM
CAKI-1 renal
  TGI: 1.23 µM
K-562 leukemia
  TGI: 1.64 µM
ACHN renal
  TGI: 0.47 µM
MOLT-4 leukemia
  TGI: > 100 µM
HCC-2998 colon
  TGI: 0.643 µM
MDA-N
  TGI: 1.26 µM
SK-MEL-2 melanoma
  TGI: 1.95 µM
SK-MEL-5 melanoma
  TGI: 1.47 µM
SF-295 CNS
  TGI: 2.81 µM
SW-620 colon
  TGI: 1.46 µM
MCF7 breast
  TGI: 0.625 µM
M14 melanoma
  TGI: 0.95 µM
HCT-116 colon
  TGI: 8.36 µM
MDA-MB-435
  TGI: 1.77 µM
BT-549 breast
  TGI: 10.5 µM
SNB-75 CNS
  TGI: 1.58 µM

## NNC1=Nc2ccc(Cl)cc2C(=S)N2CSCC12 (stereo unspecified)
CCRF-CEM leukemia
  TGI: > 100 µM
SN12C renal
  TGI: > 100 µM
PC-3 prostate
  TGI: > 100 µM
786-0 renal
  TGI: > 100 µM
EKVX NSCLC
  TGI: > 100 µM
MALME-3M melanoma
  TGI: > 100 µM
RXF 393 renal
  TGI: > 100 µM
SNB-19 CNS
  TGI: > 100 µM
NCI-H522 lung
  TGI: > 100 µM
SK-MEL-28 melanoma
  TGI: > 100 µM
COLO 205 colon
  TGI: > 100 µM
HS 578T breast
  TGI: > 100 µM
RPMI-8226 leukemia
  TGI: > 100 µM
UO-31 renal
  TGI: > 100 µM
T-47D breast
  TGI: > 100 µM
TK-10 renal
  TGI: > 100 µM
HCT-15 colon
  TGI: > 100 µM
OVCAR-8 ovarian
  TGI: > 100 µM
MDA-MB-231 breast
  TGI: > 100 µM
UACC-62 melanoma
  TGI: > 100 µM
LOX IMVI melanoma
  TGI: > 100 µM
U251 CNS
  TGI: > 100 µM
IGROV1 ovarian
  TGI: > 100 µM
UACC-257 melanoma
  TGI: > 100 µM
OVCAR-3 ovarian
  TGI: > 100 µM
SF-268 CNS
  TGI: > 100 µM
HT29 colon
  TGI: > 100 µM
HOP-62 NSCLC
  TGI: > 100 µM
KM12 colon
  TGI: > 100 µM
OVCAR-4 ovarian
  TGI: > 100 µM
DU-145 prostate
  TGI: > 100 µM
A549 NSCLC
  TGI: > 100 µM
OVCAR-5 ovarian
  TGI: > 100 µM
NCI-H460 lung
  TGI: > 100 µM
NCI-H226 lung
  TGI: > 100 µM
A498 renal
  TGI: > 100 µM
SK-OV-3 ovarian
  TGI: > 100 µM
SR leukemia
  TGI: > 100 µM
NCI/ADR-RES ovarian
  TGI: > 100 µM
CAKI-1 renal
  TGI: > 100 µM
K-562 leukemia
  TGI: > 100 µM
ACHN renal
  TGI: > 100 µM
MOLT-4 leukemia
  TGI: > 100 µM
HCC-2998 colon
  TGI: > 100 µM
MDA-N
  TGI: > 100 µM
SK-MEL-2 melanoma
  TGI: > 100 µM
SK-MEL-5 melanoma
  TGI: > 100 µM
SF-295 CNS
  TGI: > 100 µM
SW-620 colon
  TGI: > 100 µM
MCF7 breast
  TGI: > 100 µM
M14 melanoma
  TGI: > 100 µM
HCT-116 colon
  TGI: > 100 µM
MDA-MB-435
  TGI: > 100 µM
BT-549 breast
  TGI: > 100 µM
SNB-75 CNS
  TGI: > 100 µM

## c1csc(-c2cc(-c3ccsc3)c(-c3ccsc3)s2)c1
CCRF-CEM leukemia
  TGI: > 100 µM
SN12C renal
  TGI: > 100 µM
NCI-H23 lung
  TGI: > 100 µM
PC-3 prostate
  TGI: > 100 µM
786-0 renal
  TGI: > 100 µM
EKVX NSCLC
  TGI: 90.8 µM
HOP-92 NSCLC
  TGI: > 100 µM
MALME-3M melanoma
  TGI: > 100 µM
RXF 393 renal
  TGI: > 100 µM
SNB-19 CNS
  TGI: > 100 µM
NCI-H522 lung
  TGI: > 100 µM
SK-MEL-28 melanoma
  TGI: > 100 µM
COLO 205 colon
  TGI: > 100 µM
HS 578T breast
  TGI: > 100 µM
UO-31 renal
  TGI: > 100 µM
T-47D breast
  TGI: 54.2 µM
TK-10 renal
  TGI: > 100 µM
HCT-15 colon
  TGI: > 100 µM
OVCAR-8 ovarian
  TGI: > 100 µM
MDA-MB-231 breast
  TGI: > 100 µM
UACC-62 melanoma
  TGI: > 100 µM
U251 CNS
  TGI: > 100 µM
IGROV1 ovarian
  TGI: > 100 µM
UACC-257 melanoma
  TGI: > 100 µM
OVCAR-3 ovarian
  TGI: > 100 µM
SF-268 CNS
  TGI: > 100 µM
HT29 colon
  TGI: > 100 µM
HOP-62 NSCLC
  TGI: > 100 µM
KM12 colon
  TGI: > 100 µM
OVCAR-4 ovarian
  TGI: > 100 µM
DU-145 prostate
  TGI: > 100 µM
A549 NSCLC
  TGI: > 100 µM
SF-539 CNS
  TGI: > 100 µM
OVCAR-5 ovarian
  TGI: > 100 µM
NCI-H460 lung
  TGI: > 100 µM
A498 renal
  TGI: > 100 µM
SK-OV-3 ovarian
  TGI: > 100 µM
SR leukemia
  TGI: > 100 µM
NCI/ADR-RES ovarian
  TGI: > 100 µM
CAKI-1 renal
  TGI: > 100 µM
K-562 leukemia
  TGI: > 100 µM
ACHN renal
  TGI: > 100 µM
MOLT-4 leukemia
  TGI: > 100 µM
HCC-2998 colon
  TGI: > 100 µM
MDA-N
  TGI: > 100 µM
SK-MEL-5 melanoma
  TGI: > 100 µM
SF-295 CNS
  TGI: > 100 µM
SW-620 colon
  TGI: > 100 µM
MCF7 breast
  TGI: > 100 µM
M14 melanoma
  TGI: > 100 µM
HCT-116 colon
  TGI: > 100 µM
MDA-MB-435
  TGI: > 100 µM
BT-549 breast
  TGI: > 100 µM
SNB-75 CNS
  TGI: > 100 µM

— PubChem BioAssay (NCI)
